Legend:
[1] = Inhibition of HIV1 3B gp41-mediated fusion of infected human H9 cells to uninfected human MT2 cells by fluorescence assay; type: cell-based; conditions: Human immunodeficiency virus 1, 3B
[2] = Selectivity index, ratio of CC50 for human MT2 cells to EC50 for HIV 3B infected in MT2 cells; type: toxicity, cell-based; conditions: read-out: Ratio CC50/EC50
[3] = system: Human immunodeficiency virus; assay: Antiviral activity against HIV 3B infected in MT2 cells assessed as inhibition of viral replication measuring p24 level by ELISA; type: functional, organism-based; conditions: Human immunodeficiency virus 1, 3B
[4] = Inhibition of GP41 six-helix bundle formation in HIV 3B after 30 mins by FN-PAGE analysis; set-up: species or system Human immunodeficiency virus 1
[5] = Cytotoxicity against human MT2 cells by XTT assay; type: cell-based

Row | SMILES | EC50 [3] [µM] | EC50 [4] [µM] | EC50 [1] [µM] | selectivity ratio [2] | CC50 [5] [µM]
1 | O=C(O)c1cc(-c2ccc(/C=C3\NC(=O)N(CCc4ccccc4)C3=O)o2)ccc1Cl | 54.2 | 19 | > 100 | 1.5 | 78.5
2 | O=C(O)c1cccc(-c2ccc(/C=C3\NC(=O)N(CCc4ccccc4)C3=O)[nH]2)c1 | > 100 | 3.05 | 35.9 | – | 75.2
3 | O=C(O)c1cc(-c2ccc(/C=C3\CC(=O)N(CCc4ccccc4)C3=O)[nH]2)ccc1Cl | > 100 | 5.5 | > 100 | – | 74.1
4 | O=C(O)c1cccc(-c2ccc(/C=C3\CC(=O)N(CCc4ccccc4)C3=O)[nH]2)c1 | > 100 | > 100 | > 100 | – | 127
5 | O=C(O)c1cc(-c2ccc(/C=C3\SC(=S)N(CCc4ccccc4)C3=O)o2)ccc1Cl | 0.05 | 1.27 | 0.75 | 406 | 20.3

More lines, main results first:

Row | EC50 [3] [µM] | EC50 [4] [µM] | SMILES | EC50 [1] [µM] | selectivity ratio [2] | CC50 [5] [µM]
6 | 15.1 | 29.7 | O=C(O)c1cc(-c2ccc(/C=C3\SC(=O)N(CCc4ccccc4)C3=O)o2)ccc1Cl | 26.9 | 4.5 | 68.2
7 | 16.8 | 12.9 | O=C(O)c1cc(-c2ccc(/C=c3\sc4nc(=O)c(-c5ccccc5)nn4c3=O)o2)ccc1Cl | 45.9 | > 19.1 | > 320
8 | 6.9 | 15.6 | O=C(O)c1cc(-c2ccc(/C=C3\CC(=O)N(CCc4ccccc4)C3=O)o2)ccc1Cl | 43.6 | 17.2 | 118
9 | 31 | 27.8 | O=C(O)c1cc(-c2ccc(/C=C3\OC(=S)N(CCc4ccccc4)C3=O)o2)ccc1Cl | 49.6 | 9.1 | 282
